Reference: patent US20110319392A1, “Thiazole Sulfonamide And Oxazole Sulfonamide Kinase Inhibitors” (priority 2009, published 2011)

Key:
[1] = tested on: SK-MEL-28 tumor cells; assay: Cell growth inhibition assay (CellTiter-Glo), SK-MEL-28; type: cell-based, Human; conditions: Homo sapiens, SK-MEL-28, 72 h; 3 days incubation
How it was run: (§1)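 Readout was CellTiter-Glo luminescence (total ATP, surrogate for cell number) after 3-day exposure at 37° C, 5% CO2 to 1:3 serial compound dilutions in 0.2% final DMSO. Seeding was 500 cells/well; IC50 derived by 4-parameter fit relative to vehicle-treated wells.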

[2] = tested on: A375P F11s tumor cells; assay: Cell growth inhibition assay (CellTiter-Glo), A375P F11s; type: cell-based, Human; conditions: for IC50: Homo sapiens
How it was run: (§2)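 Cells plated at 500 cells/well in their growth media, dosed next day with nine-step 1:3 compound dilutions (final DMSO 0.2%), then incubated 3 days at 37° C, 5% CO2. Total ATP read by CellTiter-Glo luminescence as a surrogate for cell number; IC50 interpolated from 4-parameter fit versus DMSO controls.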

[3] = tested on: HT-29 tumor cells; assay: Cell growth inhibition assay (CellTiter-Glo), HT-29; type: cell-based, Human; conditions: Homo sapiens
How it was run: as §2

[4] = tested on: SK-MEL-3 tumor cells; assay: Cell growth inhibition assay (CellTiter-Glo), SK-MEL-3; type: cell-based, Human; conditions: for IC50: Homo sapiens, SK-MEL3
How it was run: as §2

[5] = target: B-Raf (Homo sapiens, UniProt P15056); assay: B-Raf Accelerated MEK ATPase assay (BRAMA), Method A or B; type: biochemical; conditions: Method B: final MEK 150 nM, single end point read
How it was run: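 ADP production, initiated by catalytic activated Raf with unphosphorylated MEK, is followed by NADH oxidation through a PK/LDH coupled system. Method B differs from the kinetic Method A by a single end-point read and 150 nM final MEK.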

[6] = tested on: BT474 tumor cells; assay: Cell growth inhibition assay (CellTiter-Glo), BT474; type: cell-based, Human; conditions: Homo sapiens, BT-474, 72 h, 3 days incubation
[7] = tested on: Colo205 tumor cells; assay: Cell growth inhibition assay (CellTiter-Glo), Colo205; type: cell-based, Human; conditions: Homo sapiens, COLO 205, 72 h; 3 days incubation
How it was run: as §1

[8] = tested on: HN5 tumor cells; assay: Cell growth inhibition assay (CellTiter-Glo), HN5; type: cell-based, Human; conditions: Homo sapiens, 72 h; 3 days incubation
How it was run: as §2

Chain of B-Raf (P15056 whole entry): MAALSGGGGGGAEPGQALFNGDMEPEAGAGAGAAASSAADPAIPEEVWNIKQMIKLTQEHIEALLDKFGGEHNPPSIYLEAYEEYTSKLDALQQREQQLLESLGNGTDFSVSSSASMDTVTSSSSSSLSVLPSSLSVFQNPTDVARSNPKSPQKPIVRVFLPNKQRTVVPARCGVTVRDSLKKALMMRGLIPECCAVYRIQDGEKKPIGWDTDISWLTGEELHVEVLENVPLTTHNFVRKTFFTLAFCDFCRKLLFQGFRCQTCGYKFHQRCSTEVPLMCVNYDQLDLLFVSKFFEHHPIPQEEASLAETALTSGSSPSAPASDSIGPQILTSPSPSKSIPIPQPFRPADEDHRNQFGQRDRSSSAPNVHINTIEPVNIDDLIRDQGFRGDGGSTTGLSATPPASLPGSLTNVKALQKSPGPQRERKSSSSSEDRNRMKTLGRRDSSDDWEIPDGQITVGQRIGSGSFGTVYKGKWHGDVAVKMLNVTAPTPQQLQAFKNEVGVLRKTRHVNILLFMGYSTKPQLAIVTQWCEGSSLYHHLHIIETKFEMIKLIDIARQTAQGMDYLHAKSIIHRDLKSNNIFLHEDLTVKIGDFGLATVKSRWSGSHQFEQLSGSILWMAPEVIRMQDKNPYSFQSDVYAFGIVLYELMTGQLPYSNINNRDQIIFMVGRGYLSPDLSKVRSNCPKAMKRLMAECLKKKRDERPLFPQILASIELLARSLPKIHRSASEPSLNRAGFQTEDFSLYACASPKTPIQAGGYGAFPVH

Compound | IC50 [1] | IC50 [2] | IC50 [3] | IC50 [4] | IC50 [5] | IC50 [6] | IC50 [7] | IC50 [8] | Activity in A375P F11s Tumor Cells [2] | Activity in SK-MEL-3 Tumor Cells [4]
CN1CCN(c2nc(-c3ccc(F)c(NS(=O)(=O)c4c(F)cccc4F)c3)c(-c3ccnc(Nc4ccc(N5CCOCC5)nc4)n3)s2)CC1 [Example 126] | < 100 nM | 100 to 1000 nM | 100 to 1000 nM | 100 to 1000 nM | < 100 nM | > 1000 nM | < 100 nM | 100 to 1000 nM |  | 
O=S(=O)(Nc1cc(-c2nc(N3CCOCC3)sc2-c2ccnc(Nc3ccc4c(c3)OCCO4)n2)ccc1F)c1c(F)cccc1F [Example 127] | 100 to 1000 nM |  | > 1000 nM |  | 100 to 1000 nM | > 1000 nM | 100 to 1000 nM | > 1000 nM | + (activity of >1 μM in A375P F11s tumor cells) | + (activity of >1 μM in SK-MEL-3 tumor cells)
COc1cc(N2CCN(CCS(C)(=O)=O)CC2)c(C)cc1Nc1nccc(-c2sc(N3CCOCC3)nc2-c2cccc(NS(=O)(=O)c3c(F)cccc3F)c2)n1 [Example 128] | 100 to 1000 nM | 100 to 1000 nM | < 100 nM | < 100 nM | 100 to 1000 nM | 100 to 1000 nM | < 100 nM | 100 to 1000 nM |  | 
CS(=O)(=O)c1cccc(Nc2nccc(-c3sc(N4CCOCC4)nc3-c3cccc(NS(=O)(=O)c4c(F)cccc4F)c3F)n2)c1 [Example 130] | < 100 nM | < 100 nM | < 100 nM | < 100 nM | < 100 nM | > 1000 nM | < 100 nM | 100 to 1000 nM |  | 
Cc1cc(N2CCN(CCS(C)(=O)=O)CC2)ncc1Nc1nccc(-c2sc(C(C)C)nc2-c2cccc(NS(=O)(=O)c3c(F)cccc3F)c2)n1 [Example 131] | < 100 nM | < 100 nM | < 100 nM | < 100 nM | < 100 nM | > 1000 nM | < 100 nM | > 1000 nM |  | 
Cc1nc(-c2cccc(NS(=O)(=O)c3c(F)cccc3F)c2)c(-c2ccnc(Nc3ccc(N4CCOCC4)nc3)n2)s1 [Example 133] | < 100 nM | < 100 nM | < 100 nM | < 100 nM | < 100 nM | > 1000 nM | < 100 nM | 100 to 1000 nM |  | 
CS(=O)(=O)c1cccc(Nc2nccc(-c3sc(N4CCOCC4)nc3-c3cccc(NS(=O)(=O)c4c(F)cccc4F)c3Cl)n2)c1 [Example 145] | < 100 nM | < 100 nM | < 100 nM | < 100 nM | < 100 nM | > 1000 nM | < 100 nM | > 1000 nM |  | 
O=S(=O)(Nc1cccc(-c2nc(N3CCOCC3)sc2-c2ccnc(Nc3ccc(N4CCOCC4)nc3)n2)c1Cl)c1c(F)cccc1F [Example 146] | < 100 nM | < 100 nM | < 100 nM | < 100 nM | < 100 nM | > 1000 nM | < 100 nM | < 100 nM |  | 
O=S(=O)(Nc1cccc(-c2nc(N3CCCCC3)sc2-c2ccnc(Nc3ccc(N4CCOCC4)nc3)n2)c1)c1c(F)cccc1F [Example 151] | < 100 nM | < 100 nM | < 100 nM | < 100 nM | < 100 nM | > 1000 nM | < 100 nM | 100 to 1000 nM |  | 
CCNc1nc(-c2cccc(NS(=O)(=O)c3c(F)cccc3F)c2)c(-c2ccnc(Nc3ccc(N4CCOCC4)nc3)n2)s1 [Example 152] | < 100 nM | < 100 nM | < 100 nM | < 100 nM | < 100 nM | 100 to 1000 nM | < 100 nM | 100 to 1000 nM |  | 
O=S1(=O)Cc2ccc(Nc3nccc(-c4sc(N5CCOCC5)nc4-c4cccc(NS(=O)(=O)c5c(F)cccc5F)c4F)n3)cc2C1 [Example 155] | < 100 nM | < 100 nM | < 100 nM | < 100 nM | < 100 nM | > 1000 nM | < 100 nM | 100 to 1000 nM |  | 
COc1ccc(S(C)(=O)=O)cc1Nc1nccc(-c2sc(N3CCOCC3)nc2-c2cccc(NS(=O)(=O)c3c(F)cccc3F)c2F)n1 [Example 157] | < 100 nM | < 100 nM | < 100 nM | < 100 nM | < 100 nM | > 1000 nM | < 100 nM | > 1000 nM |  | 
Cc1cc(Nc2nccc(-c3sc(C(C)(C)C)nc3-c3cccc(NS(=O)(=O)c4c(F)cccc4F)c3F)n2)ccn1 [Example 159] | < 100 nM | < 100 nM | < 100 nM | < 100 nM | < 100 nM | > 1000 nM | < 100 nM | < 100 nM |  | 
O=S(=O)(Nc1cccc(-c2ncsc2-c2ccnc(Nc3ccc(N4CCOCC4)nc3)n2)c1)c1c(F)cccc1F [Example 162] | < 100 nM | < 100 nM | 100 to 1000 nM | < 100 nM | < 100 nM | > 1000 nM | < 100 nM | 100 to 1000 nM |  | 
CCNc1nc(-c2ccc(F)c(NS(=O)(=O)c3c(F)cccc3F)c2)c(-c2ccnc(Nc3ccc(N4CCOCC4)nc3)n2)s1 [Example 166] | < 100 nM | 100 to 1000 nM | 100 to 1000 nM | 100 to 1000 nM | < 100 nM | > 1000 nM | 100 to 1000 nM | 100 to 1000 nM |  | 
CS(=O)(=O)CCN1CCN(c2ccc(Nc3nccc(-c4oc(N5CCCC5)nc4-c4cccc(NS(=O)(=O)c5c(F)cccc5F)c4F)n3)cc2F)CC1 [Example 167] | < 100 nM | < 100 nM | < 100 nM | < 100 nM | < 100 nM | > 1000 nM | < 100 nM | 100 to 1000 nM |  | 
